According to patent US5304633A, “Fragments of lactoferrin having potent antimicrobial activity” (priority 1990, dated 1994):
Read-outs that look alike come from different tables or passages of the source. Positions of bridges follow the written chain, without caps; N, C: chain ends. Chains are numbered I, II in the order given. No end group written: not given here.

What was measured:
[1] = tested on: gram-positive bacteria and gram-negative bacteria, including aerobic and anaerobic bacteria and yeast; experiment: Antimicrobial spectrum, MIC in liquid medium (Experiment 12), overall; format: cell-based; details: many types of gram-positive and gram-negative bacteria and yeast; peptone or PYG medium
Method: The various microorganisms shown in Table 3 and in Table 4 were incubated for 16 to 20 hours in 2 ml of peptone medium which consisted of 1% Bactopeptone (manufactured by Difco Laboratory Co.), or in 2 ml of PYG medium which consisted of 1% Bactopeptone (manufactured by Difco Laboratory Co.), 1% glucose and 0.05% yeast extract. The antimicrobial peptide was added to each medium at various ratios of 0 μg/ml to 60 μg/ml. Standard bacterial strains of various microorganisms in the logarithmic phase were inoculated into the various media at a cell concentration of 10^6 /ml and incubated at 37° C., with the exception of the bacterial strains mentioned in the footnotes of the tables. The growth of the various microorganisms was studied by measuring the light absorption at 660 nm.

various fungi = details: 20 h
Escherichia coli = format: cell-based; details: 16 h
Method: Bactocasitone (manufactured by Difco Laboratory Co.) was dissolved at a concentration of 1% in purified water, the pH was adjusted to 7.0 with 1M sodium hydroxide, the solution was sterilized at 115° C. for 15 minutes and a basal medium (liquid medium) was prepared. Each sample was dissolved at a concentration of […] in purified water, sterilization was performed by using a sterilization filter (manufactured by […] Co.) and test media, prepared by adding samples at concentrations of 1, 5, 10, 50 and 100 ppm to the basal medium, as well as a control medium with no added samples, were prepared. […] wherein A is the difference in turbidity of the test culture medium (the difference between the turbidity of the test culture medium after 16 hours of culture and the turbidity of the test culture medium before the culturing) and B is the turbidity of the control medium (the difference between the turbidity of the control culture medium after 16 hours of culture and the turbidity of the control culture medium before the culturing). The percentages of the rate of inhibition of proliferation are not in weight (same hereinafter).

Row | Compound | concentration showing antimicrobial activity (MIC, summary of Tables 3 and 4) [1] | concentration showing antimicrobial activity (MIC, summary of Table 7) (various fungi) | inhibitory rate (rate of inhibition of E. coli proliferation) (Escherichia coli; 1 ppm) [%] | inhibitory rate (rate of inhibition of E. coli proliferation) (Escherichia coli; 5 ppm) [%] | inhibitory rate (rate of inhibition of E. coli proliferation) (Escherichia coli; 10 ppm) [%] | inhibitory rate (rate of inhibition of E. coli proliferation) (Escherichia coli; 50 ppm) [%] | inhibitory rate (rate of inhibition of E. coli proliferation) (Escherichia coli; 100 ppm) [%]
1 | CC[C@H](C)[C@@H]1NC(=O)[C@H](CO)NC(=O)[C@@H]2CCCN2C(=O)[C@H](C)NC(=O)CNC(=O)[C@H](CC(C)C)NC(=O)[C@H](CCCCN)NC(=O)[C@H](CCCCN)NC(=O)[C@H](CCSC)NC(=O)[C@H](CCCNC(=N)N)NC(=O)[C@H](Cc2c[nH]c3ccccc23)NC(=O)[C@H](CCC(N)=O)NC(=O)[C@H](Cc2c[nH]c3ccccc23)NC(=O)[C@H](CCCNC(=N)N)NC(=O)[C@H](CCCNC(=N)N)NC(=O)[C@@H](NC(=O)[C@H](CCCCN)NC(=O)[C@@H](N)Cc2ccccc2)CSSC[C@@H](C(=O)N[C@H](C(=O)N[C@@H](CCCNC(=N)N)C(=O)N[C@@H](CCCNC(=N)N)C(=O)N[C@@H](C)C(=O)N[C@@H](Cc2ccccc2)C(=O)O)C(C)C)NC(=O)[C@H]([C@@H](C)O)NC1=O [antimicrobial peptide of Example 1] | less than 45 μg/ml | less than 45 μg/ml |  |  |  |  | 
2 | I: VSQPEATKCFQWQRNMRKVRGPPVSCIKRDSPIQCI / II: GRRRRSVQWCA (disulfide I:9-I:26, I:35-II:10) [antimicrobial peptide of Example 3] |  |  | 3 | 86 | 100 | 100 | 100
